# Reference: article PMC10247784, “Physiological activation of human and mouse bitter taste receptors by bile acids” (Communications Biology, 2023)
# Values joined by “and” are separate entries in the source; they are usually repeats but may differ in a detail not shown here. Equal entries are not always repeated.
# Target: T1, human TAS2R4 (Homo sapiens, UniProt Q9NYW5)
# T1 construct: expressed in transfected cells; host or cells: HEK293T-Gα16gust44
# T1 sequence (Q9NYW5 1-299): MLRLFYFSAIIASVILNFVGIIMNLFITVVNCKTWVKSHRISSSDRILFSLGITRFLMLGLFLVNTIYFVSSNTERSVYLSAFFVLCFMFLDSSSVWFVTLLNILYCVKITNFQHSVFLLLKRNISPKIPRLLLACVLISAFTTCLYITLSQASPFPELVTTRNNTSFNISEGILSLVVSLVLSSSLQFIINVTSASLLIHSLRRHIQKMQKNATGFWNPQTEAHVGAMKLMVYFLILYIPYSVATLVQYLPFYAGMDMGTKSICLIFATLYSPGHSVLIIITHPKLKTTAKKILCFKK
# Test: Calcium imaging assay (FLIPR), HEK293T-Gα16gust44 cells transfected with human TAS2R4
# Type: cell-based
# Procedure: This set of bile acids was chosen because of their commercial availability in high purities, their diversity within the class of bile acids and their previous detection and quantitation in human blood. Stock solutions were prepared in DMSO.
# As basal growth medium for the HEK293T-Gα16gust44 cell line[17],[59] served Dulbecco’s modified eagle medium (DMEM) (Thermo Fisher Scientific, Darmstadt, Germany) supplemented with 10 % fetal bovine serum (Sigma-Aldrich, Steinheim, Germany), 2 mM L-glutamine (Sigma-Aldrich, Steinheim, Germany), 100 units/ml penicillin (Sigma Aldrich, Steinheim, Germany) and 100 µg/ml streptomycin (Sigma Aldrich, Steinheim, Germany). Growth conditions were 37 °C, 5 % CO2 and saturated air-humidity[60].
# HEK293T-Gα16gust44 cells were seeded on poly-D-lysine (10 µg/ml) coated 96-well plates to reach a confluence of 40-60 % the next day. For transient transfection 150 ng of plasmid DNA containing the receptor of interest and 0.3 µl lipofectamine 2000 (Thermo Fisher Scientific, Darmstadt, Germany) per well were used and transfection took place according to the manual of lipofectamine 2000. […] The empty vector DNA (mock) was transfected as negative control[14],[41].
# Cells were loaded using the calcium-sensitive fluorescent dye Fluo-4-AM (Abcam, Cambridge, Great Britain) in the presence of 2.5 mM probenecid (Sigma-Aldrich, Steinheim, Germany) the day after transfection[13],[41]. 1 h after loading, cells were washed with C1 buffer using a BioTek Cell Washer, incubated in the dark for half an hour and washed again. For automated agonist application and measurement of fluorescence changes, a FLIPR^TETRA device (Molecular Devices, San José, United States) was used. Viability of cells was tested by application of 100 nM Somatostatin 14 (Bachem, Bubendorf, Switzerland)[42].
# Measured data were negative control corrected by subtracting the signal of the mock-transfected cells and exported to Microsoft Excel using the FLIPR software ScreenWorks 4.2. In Microsoft Excel software, standardization of maximum fluorescence intensities to the basal fluorescence and normalization to the buffer-only control was done to calculate the relative fluorescence changes (ΔF/F).
# Initial screening experiments performed in duplicate wells were confirmed by at least one replication and representative traces were selected for display. All dose-response relationships were determined by three independent experiments (biological replicates) performed in duplicates (technical replicates). Threshold concentrations, defined as lowest substance concentrations leading to statistically significant elevated fluorescence changes in receptor-transfected cells compared with empty vector-transfected cells, were determined using SigmaPlot with Student’s t-test to evaluate statistical significance (p < 0.01).
smiles,measurement,setting,value
"C[C@H](CCC(=O)O)[C@H]1CC[C@H]2[C@@H]3CC[C@@H]4C[C@H](O)CC[C@]4(C)[C@H]3C[C@H](O)[C@]12C [Deoxycholic Acid, deoxycholic acid]",Efficacy = maximal amplitude (ΔF/F),"TAS2R4, bile acids, mean",0.08533
same,"Efficacy (maximal amplitude ΔF/F), individual data points","TAS2R4, bile acids, single replicates, listed as DCA",0.07628 and 0.1105 and 0.06917
same,"RLU, fluorescence trace",Time (s) 0,0 RLU
same,"RLU, fluorescence trace",Time (s) 2,-24.43 RLU
same,"RLU, fluorescence trace",Time (s) 4,-23.5542 RLU
same,"RLU, fluorescence trace",Time (s) 6,-22.8766 RLU
same,"RLU, fluorescence trace",Time (s) 8,-1.905 RLU
same,"RLU, fluorescence trace",Time (s) 12,-21.8648 RLU
same,"RLU, fluorescence trace",Time (s) 14,-18.1346 RLU
same,"RLU, fluorescence trace",Time (s) 16,-52.8215 RLU
same,"RLU, fluorescence trace",Time (s) 18,-24.2064 RLU
same,"RLU, fluorescence trace","Time (s) 18.766 (TCA, TLCA: 18.782)",-22.8202 RLU
same,"RLU, fluorescence trace","Time (s) 20.781 (TCA, TLCA: 20.782)",-95.6069 RLU
same,"RLU, fluorescence trace","Time (s) 22.781 (TCA, TLCA: 22.782)",-71.6568 RLU
same,"RLU, fluorescence trace","Time (s) 24.781 (TCA, TLCA: 24.782)",-40.8819 RLU
same,"RLU, fluorescence trace","Time (s) 26.781 (TCA, TLCA: 26.782)",-9.811 RLU
same,"RLU, fluorescence trace","Time (s) 28.781 (TCA, TLCA: 28.782)",38.1772 RLU
same,"RLU, fluorescence trace","Time (s) 30.781 (TCA, TLCA: 30.782)",89.531 RLU
same,"RLU, fluorescence trace","Time (s) 32.781 (TCA, TLCA: 32.782)",109 RLU
same,"RLU, fluorescence trace","Time (s) 34.781 (TCA, TLCA: 34.782)",155.799 RLU
same,"RLU, fluorescence trace","Time (s) 36.781 (TCA, TLCA: 36.782)",198.766 RLU
same,"RLU, fluorescence trace","Time (s) 38.781 (TCA, TLCA: 38.782)",215 RLU
same,"RLU, fluorescence trace","Time (s) 40.781 (TCA, TLCA: 40.782)",245.601 RLU
same,"RLU, fluorescence trace","Time (s) 42.781 (TCA, TLCA: 42.782)",273.234 RLU
same,"RLU, fluorescence trace","Time (s) 44.781 (TCA, TLCA: 44.782)",289.793 RLU
same,"RLU, fluorescence trace","Time (s) 46.781 (TCA, TLCA: 46.782)",293.169 RLU
same,"RLU, fluorescence trace","Time (s) 48.781 (TCA, TLCA: 48.782)",315.257 RLU
same,"RLU, fluorescence trace","Time (s) 50.781 (TCA, TLCA: 50.782)",327.06 RLU
same,"RLU, fluorescence trace","Time (s) 52.781 (TCA, TLCA: 52.782)",336.965 RLU
same,"RLU, fluorescence trace","Time (s) 54.781 (TCA, TLCA: 54.782)",356.774 RLU
same,"RLU, fluorescence trace","Time (s) 56.781 (TCA, TLCA: 56.782)",358.021 RLU
same,"RLU, fluorescence trace","Time (s) 58.781 (TCA, TLCA: 58.782)",377.086 RLU
same,"RLU, fluorescence trace","Time (s) 60.781 (TCA, TLCA: 60.782)",371.413 RLU
same,"RLU, fluorescence trace","Time (s) 62.781 (TCA, TLCA: 62.782)",354.175 RLU
same,"RLU, fluorescence trace","Time (s) 64.781 (TCA, TLCA: 64.782)",367.028 RLU
same,"RLU, fluorescence trace","Time (s) 66.781 (TCA, TLCA: 66.782)",369.018 RLU
same,"RLU, fluorescence trace","Time (s) 68.781 (TCA, TLCA: 68.782)",401.767 RLU
same,"RLU, fluorescence trace","Time (s) 70.781 (TCA, TLCA: 70.782)",369.499 RLU
same,"RLU, fluorescence trace","Time (s) 72.781 (TCA, TLCA: 72.782)",371.417 RLU
same,"RLU, fluorescence trace","Time (s) 74.781 (TCA, TLCA: 74.782)",395.575 RLU
same,"RLU, fluorescence trace","Time (s) 76.781 (TCA, TLCA: 76.782)",372.212 RLU
same,"RLU, fluorescence trace","Time (s) 78.781 (TCA, TLCA: 78.782)",381.123 RLU
same,"RLU, fluorescence trace","Time (s) 80.781 (TCA, TLCA: 80.782)",377.573 RLU
same,"RLU, fluorescence trace","Time (s) 82.781 (TCA, TLCA: 82.782)",366.542 RLU
same,"RLU, fluorescence trace","Time (s) 84.781 (TCA, TLCA: 84.782)",344.412 RLU
same,"RLU, fluorescence trace","Time (s) 86.781 (TCA, TLCA: 86.782)",365.264 RLU
same,"RLU, fluorescence trace","Time (s) 88.781 (TCA, TLCA: 88.782)",345.388 RLU
same,"RLU, fluorescence trace","Time (s) 90.781 (TCA, TLCA: 90.782)",349.245 RLU
same,"RLU, fluorescence trace","Time (s) 92.781 (TCA, TLCA: 92.782)",348.005 RLU
same,"RLU, fluorescence trace","Time (s) 94.781 (TCA, TLCA: 94.782)",360.114 RLU
same,"RLU, fluorescence trace","Time (s) 96.781 (TCA, TLCA: 96.782)",353.364 RLU
same,"RLU, fluorescence trace","Time (s) 98.781 (TCA, TLCA: 98.782)",356.212 RLU
same,"RLU, fluorescence trace","Time (s) 100.781 (TCA, TLCA: 100.782)",338.006 RLU
same,"RLU, fluorescence trace","Time (s) 102.781 (TCA, TLCA: 102.782)",349.375 RLU
same,"RLU, fluorescence trace","Time (s) 104.781 (TCA, TLCA: 104.782)",357.725 RLU
same,"RLU, fluorescence trace","Time (s) 106.781 (TCA, TLCA: 106.782)",339.949 RLU
same,"RLU, fluorescence trace","Time (s) 108.781 (TCA, TLCA: 108.782)",333.434 RLU
same,"RLU, fluorescence trace","Time (s) 110.781 (TCA, TLCA: 110.782)",336.947 RLU
same,"RLU, fluorescence trace","Time (s) 112.781 (TCA, TLCA: 112.782)",335.627 RLU
same,"RLU, fluorescence trace","Time (s) 114.781 (TCA, TLCA: 114.782)",349.641 RLU
same,"RLU, fluorescence trace","Time (s) 116.781 (TCA, TLCA: 116.782)",340.242 RLU
same,"RLU, fluorescence trace","Time (s) 118.781 (TCA, TLCA: 118.782)",328.36 RLU
same,"RLU, fluorescence trace","Time (s) 120.781 (TCA, TLCA: 120.782)",338.913 RLU
same,"RLU, fluorescence trace","Time (s) 122.781 (TCA, TLCA: 122.782)",364.894 RLU
same,"RLU, fluorescence trace","Time (s) 124.781 (TCA, TLCA: 124.782)",333.589 RLU
same,"RLU, fluorescence trace","Time (s) 126.781 (TCA, TLCA: 126.782)",335.132 RLU
same,"RLU, fluorescence trace","Time (s) 128.781 (TCA, TLCA: 128.782)",319.908 RLU
same,"RLU, fluorescence trace","Time (s) 130.781 (TCA, TLCA: 130.782)",356.29 RLU
same,"RLU, fluorescence trace","Time (s) 132.781 (TCA, TLCA: 132.782)",335.417 RLU
same,"RLU, fluorescence trace","Time (s) 134.781 (TCA, TLCA: 134.782)",327.442 RLU
same,"RLU, fluorescence trace","Time (s) 136.781 (TCA, TLCA: 136.782)",323.134 RLU
same,"RLU, fluorescence trace",Time (s) 137.547,342.47 RLU
same,"RLU, fluorescence trace",Time (s) 143.547,333.389 RLU
same,"RLU, fluorescence trace",Time (s) 149.547,328.288 RLU
same,"RLU, fluorescence trace",Time (s) 155.547,355.055 RLU
same,"RLU, fluorescence trace",Time (s) 161.547,338.156 RLU
same,"RLU, fluorescence trace",Time (s) 167.547,335.87 RLU
same,"RLU, fluorescence trace",Time (s) 173.547,351.387 RLU
same,"RLU, fluorescence trace",Time (s) 179.547,368.586 RLU
same,"RLU, fluorescence trace",Time (s) 185.547,363.986 RLU
same,"RLU, fluorescence trace",Time (s) 191.547,372.236 RLU
same,"RLU, fluorescence trace",Time (s) 197.547,331.461 RLU
same,"RLU, fluorescence trace",Time (s) 203.547,345.855 RLU
same,"RLU, fluorescence trace",Time (s) 209.547,348.008 RLU
same,"RLU, fluorescence trace",Time (s) 215.547,318.834 RLU
same,"RLU, fluorescence trace",Time (s) 221.547,327.885 RLU
same,"RLU, fluorescence trace",Time (s) 227.547,345.298 RLU
same,"RLU, fluorescence trace",Time (s) 233.547,352.884 RLU
same,"RLU, fluorescence trace",Time (s) 239.547,389.33 RLU
same,"RLU, fluorescence trace",Time (s) 245.547,399.649 RLU
same,"RLU, fluorescence trace",Time (s) 293.547,411.409 RLU
same,"RLU, fluorescence trace",Time (s) 299.547,406.435 RLU
same,"RLU, fluorescence trace",Time (s) 305.547,380.1 RLU
same,"RLU, fluorescence trace",Time (s) 311.547,396.715 RLU
same,"RLU, fluorescence trace",Time (s) 317.547,351.706 RLU
same,"RLU, fluorescence trace",Time (s) 323.547,391.589 RLU
same,"RLU, fluorescence trace",Time (s) 329.547,362.796 RLU
same,"RLU, fluorescence trace",Time (s) 335.547,360.917 RLU
same,"RLU, fluorescence trace",Time (s) 341.547,350.479 RLU
same,"RLU, fluorescence trace",Time (s) 347.547,349.654 RLU
same,"RLU, fluorescence trace",Time (s) 353.547,326.897 RLU
same,"RLU, fluorescence trace",Time (s) 359.547,343.746 RLU
same,Activation threshold concentration TAS2R4,lowest concentration with significantly increased fluorescence vs empty vector (p < 0.01),3 µM
